From patent US12396948B2, “Pharmaceutical compositions for the treatment of ophthalmic conditions” (Rhodes Technologies, priority 2017, dated 2025)
Counter-ions that a name gives are not always drawn.

Assays:
[1] = cited from earlier work
[2] = Impurity profile of antioxidant excipient solutions (Example 42); type: physicochemical; conditions: for Impurity (% Area) Total / Impurity (% w/w) Total: excipient solution; for Impurity (% w/w) Total: converted to levels corresponding to antioxidant concentrations in the dronabinol formulations
Female C57BL/6J mice [3] = assay: Conscious mouse IOP after single topical drop (Example 57); type: in vivo; conditions: for maximal IOP effect: conscious mice
Procedure: Female C57BL/6J mice (Jackson Laboratories, Bar Harbor, ME; age 2-3 months) were kept in 12 h light/12 h dark conditions (lights on 0600 h) and fed with standard chow. All experimental procedures were conducted in accordance with the ARVO Statement for the Use of Animals in Ophthalmic and Vision Research, and the University of North Texas Health Science Center Institutional Animal Care and Use Committee Regulations and Guidelines.
Dronabinol ophthalmic solutions (0.05% and 0.5%) and the corresponding vehicle were provided by Rhodes Technologies. Timolol maleate 0.5% (Hi. Tech Pharmacal) was purchased. Formulation AE10C-B was prepared as described above (Table 44).
The 2-tailed unpaired Student's t-test was used for comparison of results at the same time point between two study groups. P values of less than 0.05 were considered significant. All data are presented as mean±SEM.

Female C57BL/6J mice [4] = assay: Mouse aqueous humor dynamics by constant flow infusion (Example 57); conditions: 0.5% emulsion
Text: Briefly, immediately following bilateral tonometry in anesthetized animals, both eyes received a drop of proparacaine HCl (0.5%) for topical anesthesia, and both anterior chambers were cannulated with a 30G needle (one per eye) connected to previously calibrated BLPR-2 flow-through pressure transducers (World Precision Instruments (WPI), Sarasota, FL) for the continuous determination of pressure. A drop of PBS was also given to each eye topical ocular to prevent corneal drying. The opposing end of each transducer was connected to a 3-way valve, which in turn was connected to: (a) a 50 FAL glass microsyringe (Hamilton Company, Reno, NV) filled with sterile PBS loaded into an SP101i microdialysis infusion pump (WPI), and (b), an open ended, variable height manometer. Signals from the pressure transducers were passed via a TBM4M Bridge Amplifier (WPI) and a Lab-Trax analog-to-digital converter (WPI) to a computer. Data were recorded using LabScribe2 software (WPI).
The manometer was closed to the circuit and eyes were infused at a flow rate of 0.1 μL/min. When pressure had stabilized, pressure measurements were recorded, and flow rate was increased sequentially to 0.2, 0.3, 0.4, and 0.5 μL/min. Three stabilized pressures (spaced 5 min apart) at each flow rate were recorded. Aqueous outflow facility (C) in each eye of each animal was calculated as the reciprocal of the slope of a plot of Mean Stabilized Pressure as ordinate against Flow Rate as abscissa.
Episcleral venous pressure (Pe) was estimated using the blood reflux method. Briefly, following anterior chamber cannulation, the manometer was opened to the circuit, manometric pressure was set to equal pre-cannulation (anesthetized) TOP, and then manometric pressure was lowered incrementally (at the rate of 1 mmHg/min) until the point at which blood was seen (using a dissection microscope under 30× magnification) to reflux into the scleral collector channels and then Schlemm's canal. The manometric pressure at which Schlemm's canal was seen to fill with refluxed blood was regarded as Pe.
After completion of the above measurements, animals were euthanized by anesthetic overdose and, 20 min following euthanasia, C was measured again. Thus values for Clive and C dead were obtained. Following euthanasia, both aqueous humor formation rate (Fin) and Pe are equal to zero, and via algebraic rearrangement of the modified Goldmann equation {IOP=[(Fin−Fu)/C]+Pe}, values for Fu were thus calculated for each individual perfusion rate and corresponding TOP. The mean of those resultant 5 values was reported as Fu.
Aqueous Humor Formation Rate (Fin) was calculated for each eye by further algebraic rearrangement of the modified Goldmann equation: Fin=[C×(IOP−Pe)]+Fu.

mouse = assay: Repeated dosing study on IOP lowering effects (Example 58); type: in vivo; conditions: for maximum IOP reduction: twice daily 7 days, vs contralateral untreated eye
Procedure: Study protocol is similar to Dose-Response Relationship Study described above, except that the animals are divided into three groups (as specified below). A single 5 μL drop was instilled topically onto one eye of each mouse twice daily starting at time 0 of Day 1.
The contralateral eye was untreated. IOP of both eyes was measured at −1 h (baseline), 2 h, 4 h, 6 h, 8 h, 12 h. […] In addition to IOP measurement, animals were evaluated for possible ocular and gross systemic adverse effects. • Group 1: Vehicle • Group 2: Dronabinol (optimal concentration determined in studies above) • Group 3: Timolol (0.5%) Results: The results are presented in FIGS. 28 and 29, which illustrate comparison of IOP effects of the Dronabinol formulations, vehicle, and Timolol. The formulations were administered twice daily at 8-9 AM (Time 0) and 4-5 PM starting Day 1 till Day 7. The upper panel reports IOP values at the indicated time points after dosing (IOP at Time 0 was obtained immediately prior to the morning dosing) of Days 1, 4, and 7. The bottom panel represents % IOP change compared to the contralateral untreated eye, whose IOP defines 100%. Data are shown as mean±SEM.

O=C(O)/C=C/C(=O)O [Fumaric Acid]
Solub. in Water [1]: 0.007 mg/L

O=S([O-])S(=O)(=O)[O-].[K+].[K+] [Potassium Metabisulfite]
Solub. in Water [1]: 49.5 g/100 mL water

CCCOC(=O)c1cc(O)c(O)c(O)c1 [Propyl Gallate]
Solub. in Water [1]: 0.35 g/100 mL water

O=S([O-])([O-])=S.[Na+].[Na+] [Sodium Thiosulfate]
Impurity (% Area) Total [2]: 0.0 % Area
Impurity (% w/w) Total [2]: 0.0 % w/w

CCCCCc1cc(O)c2c(c1)OC(C)(C)[C@@H]1CCC(C)=C[C@@H]21 [Dronabinol, (−)-trans-Δ^9-tetrahydrocannabinol]
IOP reduction at 24 h after treatment (Female C57BL/6J mice [3]; 0.05% and 0.5%, single 5 μL drop): still significant
ocular, systemic, or behavioral adverse effects (Female C57BL/6J mice [3]; 0.05% and 0.5%, single topical drop): No ocular, systemic, or behavioral adverse effects were observed
maximal IOP effect (Female C57BL/6J mice [3]; 0.05% ophthalmic solution, single 5 μL drop, @ 6 h): −22.3%
maximal IOP effect (Female C57BL/6J mice [3]; 0.5% ophthalmic solution, single 5 μL drop, @ 2 h): −25.8%
ocular adverse effect (Female C57BL/6J mice [4]): No ocular adverse effect was observed
IOP lowering in anesthetized animals (Female C57BL/6J mice [4]; 2 h after treatment): 29.9%
aqueous humor formulation rate, change (Female C57BL/6J mice [4]; 2 h after treatment): −21.6%
aqueous outflow facility, increase (Female C57BL/6J mice [4]; 2 h after treatment): 54.5%
episcleral venous pressure, change (Female C57BL/6J mice [4]; 2 h after treatment): −26.8%
maximum IOP reduction (mouse; 0.005% formulation): 19.8%
maximum IOP reduction (mouse; 0.015% formulation): 25.7%
maximum IOP reduction (mouse; 0.05% formulation): 33.2%
duration of action (mouse; 0.05%, lowered baseline IOP at Days 4 & 7): > 16 h
tachyphylaxis or adverse effect (mouse; 7-day twice daily dosing, 0.005%, 0.015%, 0.05%): No tachyphylaxis or adverse effect was observed

CCCCCCCCCCCCCCCC(=O)OC[C@H](O)[C@H]1OC(=O)C(O)=C1O [Ascorbyl Palmitate]
Solub. in Water [1]: 0.07 mg/L

O=S=O [Sulfur Dioxide]
Solub. in Water [1]: 8.5 g/100 mL water

O=C(O)CC(O)C(=O)O (centres unmarked) [Malic Acid]
Solub. in Water [1]: 59.2 g/100 mL water

O=S([O-])[O-].[Na+].[Na+] [Sodium Sulfite]
Impurity (% Area) Total [2]: 0.0 % Area
Impurity (% w/w) Total [2]: 0.0 % w/w

COc1ccc(O)c(C(C)(C)C)c1 [Butylated Hydroxyanisole (BHA)]
Solub. in Water (in words) [1]: Insoluble

CC(=O)OC/C=C(C)/C=C/C=C(C)/C=C/C1=C(C)CCCC1(C)C [Vitamin A]
RRT 0.83 in testing of excipients ([2]; 0.5% Vitamin A): ~0.5 % w/w

Vitamin E
Solub. in Water (in words) [1]: Insoluble

OCC(O)CS (centres unmarked) [Monothioglycerol]
Solub. in Water (in words) [1]: Slightly

O=S([O-])S(=O)(=O)[O-].[Na+].[Na+] [Sodium Metabisulfite]
Solub. in Water (in words) [1]: Freely

CC(C)(C)NC[C@H](O)COc1nsnc1N1CCOCC1 [Timolol, Timolol maleate]
effect on mouse IOP (Female C57BL/6J mice [3]; 0.5%, positive control): lowered mouse TOP as expected
prolonged IOP reduction (baseline IOP at Days 4 & 7) (mouse; 0.5%, twice daily): did not produce this prolonged IOP reduction
maximum IOP reduction (mouse; 0.5%): 35.1%
